The target of this assay is T1, IL33 and ST2 binding (Homo sapiens, UniProt O95760).
T1 sequence (O95760 112-270 limits assumed): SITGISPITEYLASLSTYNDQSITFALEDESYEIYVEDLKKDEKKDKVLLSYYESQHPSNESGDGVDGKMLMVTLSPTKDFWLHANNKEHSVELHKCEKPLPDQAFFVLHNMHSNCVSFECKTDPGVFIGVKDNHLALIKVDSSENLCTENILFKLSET

We go through 23 molecules from US20240287052A1, “NOVEL OXAZOLE DERIVATIVE AND PHARMACEUTICAL COMPOSITION FOR PREVENTING OR TREATING ALLERGIC DISEASES COMPRISING THE SAME” (AZCURIS CO., LTD., priority 2021, published 2024).

Like-named read-outs stand apart in the source and are kept apart here.

In general, inhibition refers to the drop in the measured response relative to a control, in per cent.
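Also: plate ELISA with coated Flag-tagged human IL-33 and His-tagged human ST2, bound ST2 detected by anti-His HRP and TMB absorbance at 450 nm, 2 h compound incubation.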

On to `CCOC(=O)c1nc(-c2ccc(F)cc2)oc1-c1ccccc1[N+](=O)[O-]` [Compound 68, Ethyl 2-(4-fluorophenyl)-5-(2-nitrophenyl)oxazole-4-carboxylate], for which the inhibition (30 µM) is 55% and the inhibition (100 µM) was 105%.

With `O=C(NCCN1CCNCC1)c1nc(-c2cc(F)cc(F)c2)oc1-c1ccccc1[N+](=O)[O-]` [Compound 283, 2-(3,5-Difluorophenyl)-5-(2-nitrophenyl)-N-(2-(piperazin-1-yl)ethyl)oxazole-4-carboxamide], the inhibition amounted to 31% (30 µM) and 49% (100 µM).

`CN1CCN(CCNC(=O)c2nc(-c3ccc(Cl)cc3)oc2-c2ccccc2)CC1` [Compound 245, 2-(4-Chlorophenyl)-N-(2-(4-methylpiperazin-1-yl)ethyl)-5-phenyloxazole-4-carboxamide]: the inhibition (30 µM) was 15% and the inhibition (100 µM) is 26%.

As for `COc1ccc(-c2nc(C(=O)NCCN(C)C)c(-c3ccccc3)o2)cc1` [Compound 212, N-(2-(Dimethylamino)ethyl)-2-(4-methoxyphenyl)-5-phenyloxazole-4-carboxamide], the inhibition runs as follows: (30 µM) -26%; (100 µM) -22%.

With `COCCNC(=O)c1nc(-c2ccc(C(F)(F)F)cc2)oc1-c1ccccc1[N+](=O)[O-]` [Compound 160, N-(2-Methoxyethyl)-5-(2-nitrophenyl)-2-(4-(trifluoromethyl)phenyl)oxazole-4-carboxamide], the inhibition worked out at 18% (30 µM) and 29% (100 µM).

For the molecule `CN(C)CCNC(=O)c1nc(-c2ccccc2C(F)(F)F)oc1-c1ccccc1[N+](=O)[O-]` [Compound 119, N-(2-(Dimethylamino)ethyl)-5-(2-nitrophenyl)-2-(2-(trifluoromethyl)phenyl)oxazole-4-carboxamide], the inhibition was -6% (30 µM) and -14% (100 µM).

`CS(=O)(=O)N1CCN(CCNC(=O)c2nc(-c3ccc(C(F)(F)F)cc3)oc2-c2ccccc2[N+](=O)[O-])CC1` [Compound 287, N-(2-(4-(methylsulfonyl)piperazin-1-yl)ethyl)-5-(2-nitrophenyl)-2-(4-(trifluoromethyl)phenyl)oxazole-4-carboxamide]: the inhibition runs as follows: (30 µM) 41%; (100 µM) 46%.

With `CN1CCN(CCNC(=O)c2nc(-c3ccccc3C(F)(F)F)oc2-c2ccccc2)CC1` [Compound 118, N-(2-(4-Methylpiperazin-1-yl)ethyl)-5-phenyl-2-(2-(trifluoromethyl)phenyl)oxazole-4-carboxamide], the inhibition (30 µM) was determined as 24% and the inhibition (100 µM) was determined as 36%.

As to `CCOC(=O)c1nc(-c2cc(F)cc(F)c2)oc1-c1ccccc1` [Compound 73, Ethyl 2-(3,5-difluorophenyl)-5-phenyloxazole-4-carboxylate], the inhibition reads like this: (30 µM) 12%; (100 µM) 22%.

Consider `COc1ccc(-c2nc(C(=O)NCCN(C)C)c(-c3ccccc3[N+](=O)[O-])o2)cc1` [Compound 214, N-(2-(Dimethylamino)ethyl)-2-(4-methoxyphenyl)-5-(2-nitrophenyl)oxazole-4-carboxamide], for which the inhibition reads like this: (30 µM) -28%; (100 µM) -49%.

On to `CN1CCN(CCNC(=O)c2nc(-c3ccc(F)cc3)oc2-c2ccc([N+](=O)[O-])cc2)CC1` [Compound 230, 2-(4-Fluorophenyl)-N-(2-(4-methylpiperazin-1-yl)ethyl)-5-(4-nitrophenyl)oxazole-4-carboxamide], for which the inhibition was 15% (30 µM) and 0% (100 µM).

As to `CCOC(=O)c1nc(-c2ccc(C(C)(C)C)cc2)oc1-c1ccc(N(C(C)=O)C(C)=O)cc1` [Compound 110, Ethyl 5-(4-(N-acetylacetamido)phenyl)-2-(4-(tert-butyl)phenyl)oxazole-4-carboxylate], the inhibition by setting is: (30 µM) 19%; (100 µM) 26%.

As for `CN(C)CCNC(=O)c1nc(-c2ccc(Cl)cc2)oc1-c1ccccc1` [Compound 244, 2-(4-Chlorophenyl)-N-(2-(dimethylamino)ethyl)-5-phenyloxazole-4-carboxamide], the inhibition reads like this: (30 µM) 0%; (100 µM) 38%.

In the case of `CN(C)CCNC(=O)c1nc(-c2ccc(OC(F)(F)F)cc2)oc1-c1ccccc1[N+](=O)[O-]` [Compound 205, N-(2-(Dimethylamino)ethyl)-5-(2-nitrophenyl)-2-(4-(trifluoromethoxy)phenyl)oxazole-4-carboxamide], the inhibition is, setting by setting: (30 µM) -11%; (100 µM) 4%.

As to `O=C(NCc1cccnc1)c1nc(-c2ccc(C(F)(F)F)cc2)oc1-c1ccccc1[N+](=O)[O-]` [Compound 142, 5-(2-Nitrophenyl)-N-(pyridin-3-ylmethyl)-2-(4-(trifluoromethyl)phenyl)oxazole-4-carboxamide], the inhibition reads like this: (30 µM) 6%; (100 µM) 8%.

As to `CCOC(=O)c1nc(-c2ccc(C(F)(F)F)cc2)oc1-c1cccc(SC)c1` [Compound 40, Ethyl 5-(3-(methylthio)phenyl)-2-(4-(trifluoromethyl)phenyl)oxazole-4-carboxylate], the inhibition (30 µM) turned out to be 108% and the inhibition (100 µM) worked out at 115%.

Take `O=C(NCCN1CCCCC1)c1nc(-c2ccc(C(F)(F)F)cc2)oc1-c1ccccc1[N+](=O)[O-]` [Compound 173, 5-(2-Nitrophenyl)-N-(2-(piperidin-1-yl)ethyl)-2-(4-(trifluoromethyl)phenyl)oxazole-4-carboxamide]: the inhibition was 54% (30 µM) and 60% (100 µM).

For the molecule `CN(C)CCNC(=O)c1nc(-c2ccccc2C(F)(F)F)oc1-c1ccccc1` [Compound 117, N-(2-(Dimethylamino)ethyl)-5-phenyl-2-(2-(trifluoromethyl)phenyl)oxazole-4-carboxamide], the inhibition by setting is: (30 µM) 4%; (100 µM) 10%.

Consider `O=C(NCCN1CCNCC1)c1nc(-c2ccc(C(F)(F)F)cc2)oc1-c1ccccc1[N+](=O)[O-]` [Compound 281, 5-(2-nitrophenyl)-N-(2-(piperazin-1-yl)ethyl)-2-(4-(trifluoromethyl)phenyl)oxazole-4-carboxamide], for which the inhibition by setting is: (30 µM) 73%; (100 µM) 71%.

Consider `CN1CCN(CCNC(=O)c2nc(-c3ccc(N(C)C)cc3)oc2-c2ccccc2)CC1` [Compound 262, 2-(4-(Dimethylamino)phenyl)-N-(2-(4-methylpiperazin-1-yl)ethyl)-5-phenyloxazole-4-carboxamide], for which the inhibition was determined as 14% (30 µM) and 33% (100 µM).

`CCOC(=O)c1nc(-c2ccc(C(F)(F)F)cc2)oc1-c1ccc(NC(C)=O)cc1` [Compound 107, Ethyl 5-(4-acetamidophenyl)-2-(4-(trifluoromethyl)phenyl)oxazole-4-carboxylate]: the inhibition runs as follows: (30 µM) -15%; (100 µM) -9%.

In the case of `O=C(c1ccc(N2CCCCC2)cc1)c1nc(-c2ccc(C(F)(F)F)cc2)oc1-c1ccccc1[N+](=O)[O-]` [Compound 162, (5-(2-Nitrophenyl)-2-(4-(trifluoromethyl)phenyl)oxazol-4-yl)(4-(piperidin-1-yl)phenyl)methanone], the inhibition (30 µM) was 3% and the inhibition (100 µM) came to 5%.

As for `CN(C)CCN1CCN(C(=O)c2nc(-c3ccc(C(F)(F)F)cc3)oc2-c2ccccc2)CC1` [Compound 129], the inhibition (30 µM) was 45% and the inhibition (100 µM) is 79%.
